Data set [1] addresses T1, recombinant guanylate cyclase reporter cell line (Rattus norvegicus, UniProt P19686+P20595).
T1 construct: expressed in transfected cells
T1 sequence (P20595 1-619): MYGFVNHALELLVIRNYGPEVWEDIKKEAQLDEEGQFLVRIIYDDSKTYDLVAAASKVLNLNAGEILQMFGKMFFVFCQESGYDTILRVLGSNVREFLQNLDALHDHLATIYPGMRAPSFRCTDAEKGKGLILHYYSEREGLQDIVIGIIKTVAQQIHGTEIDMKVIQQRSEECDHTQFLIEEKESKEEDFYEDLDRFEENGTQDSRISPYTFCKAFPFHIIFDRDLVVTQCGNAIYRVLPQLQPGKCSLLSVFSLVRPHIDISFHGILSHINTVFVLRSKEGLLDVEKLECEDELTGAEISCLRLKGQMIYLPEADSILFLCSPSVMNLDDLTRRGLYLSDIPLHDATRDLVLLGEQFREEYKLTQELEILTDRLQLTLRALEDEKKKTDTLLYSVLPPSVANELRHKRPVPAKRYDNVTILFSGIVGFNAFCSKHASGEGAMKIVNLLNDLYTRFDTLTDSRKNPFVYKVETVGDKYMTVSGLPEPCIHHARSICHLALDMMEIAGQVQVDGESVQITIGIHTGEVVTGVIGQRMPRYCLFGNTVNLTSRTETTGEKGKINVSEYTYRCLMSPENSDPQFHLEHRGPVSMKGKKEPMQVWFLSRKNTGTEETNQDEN
T1 sequence (P19686 1-690): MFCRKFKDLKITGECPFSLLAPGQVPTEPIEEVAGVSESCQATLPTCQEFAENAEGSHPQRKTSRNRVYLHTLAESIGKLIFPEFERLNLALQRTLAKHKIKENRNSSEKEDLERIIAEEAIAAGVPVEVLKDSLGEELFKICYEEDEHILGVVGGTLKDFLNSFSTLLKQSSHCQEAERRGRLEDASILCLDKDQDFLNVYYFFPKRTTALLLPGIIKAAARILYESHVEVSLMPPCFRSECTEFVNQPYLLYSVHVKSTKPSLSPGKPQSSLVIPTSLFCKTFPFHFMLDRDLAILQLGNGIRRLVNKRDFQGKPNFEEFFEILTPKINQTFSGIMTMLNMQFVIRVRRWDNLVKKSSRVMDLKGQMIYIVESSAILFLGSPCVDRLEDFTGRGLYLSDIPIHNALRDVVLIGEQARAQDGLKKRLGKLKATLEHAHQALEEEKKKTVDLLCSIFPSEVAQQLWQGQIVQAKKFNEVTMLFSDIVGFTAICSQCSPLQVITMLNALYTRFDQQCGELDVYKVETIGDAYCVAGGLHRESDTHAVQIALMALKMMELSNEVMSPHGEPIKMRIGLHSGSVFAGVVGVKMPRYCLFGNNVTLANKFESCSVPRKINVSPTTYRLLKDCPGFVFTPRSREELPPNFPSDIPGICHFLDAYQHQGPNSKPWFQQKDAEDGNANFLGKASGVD
The data set is described as follows: Action on recombinant guanylate cyclase reporter cell line. The data set is classed as cell-based. The settings on record: in some cases mean values obtained from individual determinations. The method, boiled down: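 Cell-based reporter assay with recombinant guanylate cyclase expressed in a reporter cell line, per a published method. Activity reported as minimal effective concentration (MEC), in some cases as the mean of individual determinations.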

The nature of data set [2]: Determination of pharmacokinetic parameters following intravenous and oral administration (rats). It is filed as in vivo, male Wistar rats. As to conditions: following intravenous and peroral administration; for MRT / half-life: male, Wistar, rat, plasma; for MRT: read-out: MRT (Mean Residence Time); for half-life: read-out: t½ (terminal half life) (converted). As for the experimental part:
B-6. Determination of Pharmacokinetic Parameters Following Intravenous and Oral Administration
The pharmacokinetic parameters of the compounds according to the invention are determined in male CD-1 mice, male Wistar rats and female beagles. Intravenous administration in the case of mice and rats is carried out by means of a species-specific plasma/DMSO formulation, and in the case of dogs by means of a water/PEG400/ethanol formulation. In all species, oral administration of the dissolved substance is performed via gavage, based on a water/PEG400/ethanol formulation.
The taking of blood from rats is simplified by inserting a silicone catheter into the right Vena jugularis externa prior to substance administration. The operation is carried out at least one day prior to the experiment with […] and administration of an analgesic (atropin/Rimadyl (3/1) 0.1 ml s.c.). The blood is taken (generally more than 10 time points) within a time window including terminal time points of at least 24 to a maximum of 72 hours after substance administration. When the blood is taken, it is passed into heparinised tubes. Then the blood plasma is obtained by centrifugation and is optionally stored at −20° C. until further processing.
An internal standard (which may also be a chemically unrelated substance) is added to the samples of the compounds according to the invention, calibration samples and qualifiers, and there follows protein precipitation by means of excess acetonitrile. Addition of a buffer solution matched to the LC conditions, and subsequent vortexing, is followed by centrifugation at 1000 g. The supernatant is analysed by LC-MS/MS using C18 reversed-phase columns and variable mobile phase mixtures.
The substances are quantified via the peak heights or areas from extracted ion chromatograms of specific selected ion monitoring experiments.
The plasma concentration/time plots determined are used to calculate the pharmacokinetic parameters such as AUC, Cmax, t1/2 (terminal half life), F (Bioavailability), MRT (Mean Residence Time) and CL (Clearance), using a validated pharmacokinetic calculation programme.
Since the substance quantification is carried out in plasma, it is necessary to determine the blood/plasma distribution of the substance in order to be able to adjust the pharmacokinetic parameters correspondingly. For this purpose, a defined amount of substance is incubated in heparinised whole blood of the species in question in a rocking roller mixer for 20 min. After centrifugation at 1000 g, the plasma concentration is measured (by means of LC-MS/MS; see above) and determined by calculating the ratio of the Cblood/Cplasma value.

Each structure is given as a SMILES string.

As to `Cc1nc2c(OCc3ncccc3F)cc(Cl)cn2c1C(=O)NC(CCCC(F)(F)F)C(C)(C)O` (single isomer, unassigned; ent-6) [Example 188, ent-6-chloro-8-[(3-fluoropyridin-2-yl)methoxy]-2-methyl-N-(7,7,7-trifluoro-2-hydroxy-2-methylheptan-3-yl)imidazo[1,2-a]pyridine-3-carboxamide (enantiomer A)], the “MEC (minimal effective concentration)” value in data set [1] is 0.3 µM. For the same compound, in data set [2], the AUCnorm was 2.3 kg·h/L, the CLblood worked out at 8.83 mL/min/kg, the MRT was 2.5 h and the half-life was 1.7 h.

In the case of `Cc1cc(OCc2ncccc2F)c2nc(C)c(C(=O)NC(CCCC(F)(F)F)C(C)(C)O)n2c1` (single isomer, unassigned; ent-8) [Example 181, ent-8-[(3-fluoropyridin-2-yl)methoxy]-2,6-dimethyl-N-(7,7,7-trifluoro-2-hydroxy-2-methylheptan-3-yl)imidazo[1,2-a]pyridine-3-carboxamide (enantiomer B)], in data set [1], the “MEC (minimal effective concentration)” value worked out at 0.3 µM. Moreover, in data set [2], the AUCnorm worked out at 2.5 kg·h/L, the CLblood is 9.33 mL/min/kg, the MRT is 3.3 h and the half-life was 3.4 h.

`Cc1nc2c(OCc3ncccc3F)cc(Cl)cn2c1C(=O)NC(CCC(F)(F)C(F)(F)F)C(C)(C)O` (single isomer, unassigned; ent-6) [Example 194, ent-6-chloro-8-[(3-fluoropyridin-2-yl)methoxy]-2-methyl-N-(6,6,7,7,7-pentafluoro-2-hydroxy-2-methylheptan-3-yl)imidazo[1,2-a]pyridine-3-carboxamide (enantiomer A)]: the “MEC (minimal effective concentration)” value in data set [1] came out at 0.53 µM. For the same compound, in data set [2], the AUCnorm was found to be 2.9 kg·h/L, the CLblood was 7.33 mL/min/kg, the MRT came out at 8.4 h and the half-life was 6.2 h.

Turning to `Cc1cc(OCc2ncccc2F)c2nc(C)c(C(=O)NC(CCC(F)(F)C(F)(F)F)C(C)(C)O)n2c1` (single isomer, unassigned; ent-8) [Example 187, ent-8-[(3-fluoropyridin-2-yl)methoxy]-2,6-dimethyl-N-(6,6,7,7,7-pentafluor-2-hydroxy-2-methylheptan-3-yl)imidazo[1,2-a]pyridine-3-carboxamide (enantiomer B)], in data set [1], the “MEC (minimal effective concentration)” value worked out at 1 µM. Also, in data set [2], the AUCnorm amounted to 2.0 kg·h/L, the CLblood was 11.8 mL/min/kg, the mean residence time (MRT) is 4 h and the half-life was 4.6 h.

The MRT is the average time that molecules of a dose stay in the body. As usually defined, the half-life is the time in which the quantity being followed falls by half.

These data come from US8946215B2, “Hydroxy-substituted imidazo[1,2-a]pyridinecarboxamides and their use” (Bayer Pharma Aktiengesellschaft, priority 2012, dated 2015).
